Source: paper PMC6136660 (Steroids, 2018)

System: white blood cells and subsets (lymphocytes, neutrophils, eosinophils)
Test: Differential white blood cell counts (immune suppression), MAD
Assay type: in vivo, human
Conditions: for Eosinophils: mean; for Lymphocytes / Neutrophil cell counts / White blood cells counts: mean±SEM, in 10^9/L (unit assumed)
Description: A single dose of pharmacological glucocorticoids results in rapid changes in peripheral blood white cell counts, with increased neutrophils, and decreased lymphocytes. Increases of neutrophils are from release from peripheral tissues, whereas loss of lymphocytes is due to induction of apoptosis. Differential white blood cell counts were studied in all Phase 1 MAD subjects. […]
placebo. White blood cells and subsets (lymphocytes, neutrophils, eosinophils) were measured at screening, day -1, pre-dose on days 1-14, day 17, and at follow-up (recovery). Day 1 (pre-dose), Day 2 (24 hr after first dose), Day 14 and follow-up (recovery) time points are graphed […]

[1] = MAD 1.0 mg/kg, Day 1 predose, baseline
[2] = MAD 1.0 mg/kg, Day 17 (3 days after last dose)
[3] = MAD 1.0 mg/kg, Day 21 follow-up
[4] = MAD 1.0 mg/kg, Day -1, baseline
[5] = MAD 1.0 mg/kg, Screening, baseline
[6] = MAD 3.0 mg/kg, Day 1 predose, baseline
[7] = MAD 3.0 mg/kg, Day 17 (3 days after last dose)
[8] = MAD 3.0 mg/kg, Day 21 follow-up
[9] = MAD 3.0 mg/kg, Day -1, baseline
[10] = MAD 3.0 mg/kg, Screening, baseline
[11] = MAD 9.0 mg/kg, Day 1 predose, baseline
[12] = MAD 9.0 mg/kg, Day 17 (3 days after last dose)
[13] = MAD 9.0 mg/kg, Day 21 follow-up
[14] = MAD 9.0 mg/kg, Day -1, baseline
[15] = MAD 9.0 mg/kg, Screening, baseline
[16] = MAD 20.0 mg/kg, Day 1 predose, baseline
[17] = MAD 20.0 mg/kg, Day 17 (3 days after last dose)
[18] = MAD 20.0 mg/kg, Day 21 follow-up
[19] = MAD 20.0 mg/kg, Day -1, baseline
[20] = MAD 20.0 mg/kg, Screening, baseline

C[C@@H]1C[C@H]2[C@@H]3CCC4=CC(=O)C=C[C@]4(C)C3=CC[C@]2(C)[C@@]1(O)C(=O)CO [vamorolone]
Eosinophils [1]: 0.17 10^9/L | Lymphocytes [1]: 1.9 ± 0.4 | Neutrophil cell counts [1]: 2.8 ± 1.0 | White blood cells counts [1]: 5.2 ± 1.0 | Eosinophils (MAD 1.0 mg/kg, Day 2 predose): 0.17 10^9/L | Lymphocytes (MAD 1.0 mg/kg, Day 2 predose): 1.8 ± 0.3 | Neutrophil cell counts (MAD 1.0 mg/kg, Day 2 predose): 3.0 ± 0.9 | White blood cells counts (MAD 1.0 mg/kg, Day 2 predose): 5.3 ± 0.9 | Eosinophils (MAD 1.0 mg/kg, Day 3 predose): 0.17 10^9/L | Lymphocytes (MAD 1.0 mg/kg, Day 3 predose): 2.1 ± 0.2 | Neutrophil cell counts (MAD 1.0 mg/kg, Day 3 predose): 2.8 ± 0.8 | White blood cells counts (MAD 1.0 mg/kg, Day 3 predose): 5.4 ± 0.8 | Eosinophils (MAD 1.0 mg/kg, Day 7 predose): 0.2 10^9/L | Lymphocytes (MAD 1.0 mg/kg, Day 7 predose): 2.1 ± 0.3 | Neutrophil cell counts (MAD 1.0 mg/kg, Day 7 predose): 3.1 ± 0.9 | White blood cells counts (MAD 1.0 mg/kg, Day 7 predose): 5.9 ± 0.7 | Eosinophils (MAD 1.0 mg/kg, Day 12 predose): 0.2 10^9/L | Lymphocytes (MAD 1.0 mg/kg, Day 12 predose): 2.3 ± 0.3 | Neutrophil cell counts (MAD 1.0 mg/kg, Day 12 predose): 3.2 ± 1.0 | White blood cells counts (MAD 1.0 mg/kg, Day 12 predose): 6.1 ± 0.9 | Eosinophils (MAD 1.0 mg/kg, Day 14 predose): 0.18 10^9/L | Lymphocytes (MAD 1.0 mg/kg, Day 14 predose): 2.3 ± 0.2 | Neutrophil cell counts (MAD 1.0 mg/kg, Day 14 predose): 3.0 ± 1.0 | White blood cells counts (MAD 1.0 mg/kg, Day 14 predose): 5.9 ± 0.9 | Eosinophils [2]: 0.17 10^9/L | Lymphocytes [2]: 2.1 ± 0.4 | Neutrophil cell counts [2]: 3.0 ± 0.8 | White blood cells counts [2]: 5.7 ± 0.6 | Eosinophils [3]: 0.15 10^9/L | Lymphocytes [3]: 2.0 ± 0.2 | Neutrophil cell counts [3]: 3.0 ± 0.6 | White blood cells counts [3]: 5.5 ± 0.7 | Eosinophils [4]: 0.18 10^9/L | Lymphocytes [4]: 2.1 ± 0.5 | Neutrophil cell counts [4]: 2.8 ± 0.9 | White blood cells counts [4]: 5.5 ± 0.8 | Eosinophils [5]: 0.13 10^9/L | Lymphocytes [5]: 1.8 ± 0.5 | Neutrophil cell counts [5]: 3.6 ± 2.0 | White blood cells counts [5]: 5.9 ± 2.2 | Eosinophils [6]: 0.23 10^9/L | Lymphocytes [6]: 1.8 ± 0.6 | Neutrophil cell counts [6]: 3.4 ± 1.3 | White blood cells counts [6]: 5.8 ± 2.0 | Eosinophils (MAD 3.0 mg/kg, Day 2 predose): 0.23 10^9/L | Lymphocytes (MAD 3.0 mg/kg, Day 2 predose): 2.0 ± 0.4 | Neutrophil cell counts (MAD 3.0 mg/kg, Day 2 predose): 3.4 ± 1.2 | White blood cells counts (MAD 3.0 mg/kg, Day 2 predose): 5.9 ± 1.5 | Eosinophils (MAD 3.0 mg/kg, Day 3 predose): 0.2 10^9/L | Lymphocytes (MAD 3.0 mg/kg, Day 3 predose): 2.1 ± 0.7 | Neutrophil cell counts (MAD 3.0 mg/kg, Day 3 predose): 3.4 ± 1.4 | White blood cells counts (MAD 3.0 mg/kg, Day 3 predose): 6.1 ± 2.2 | Eosinophils (MAD 3.0 mg/kg, Day 7 predose): 0.18 10^9/L | Lymphocytes (MAD 3.0 mg/kg, Day 7 predose): 2.4 ± 0.8 | Neutrophil cell counts (MAD 3.0 mg/kg, Day 7 predose): 3.3 ± 0.9 | White blood cells counts (MAD 3.0 mg/kg, Day 7 predose): 6.3 ± 2.0 | Eosinophils (MAD 3.0 mg/kg, Day 12 predose): 0.18 10^9/L | Lymphocytes (MAD 3.0 mg/kg, Day 12 predose): 2.1 ± 0.7 | Neutrophil cell counts (MAD 3.0 mg/kg, Day 12 predose): 3.2 ± 1.1 | White blood cells counts (MAD 3.0 mg/kg, Day 12 predose): 6.0 ± 2.0 | Eosinophils (MAD 3.0 mg/kg, Day 14 predose): 0.2 10^9/L | Lymphocytes (MAD 3.0 mg/kg, Day 14 predose): 2.2 ± 0.6 | Neutrophil cell counts (MAD 3.0 mg/kg, Day 14 predose): 3.0 ± 1.1 | White blood cells counts (MAD 3.0 mg/kg, Day 14 predose): 5.8 ± 1.8 | Eosinophils [7]: 0.17 10^9/L | Lymphocytes [7]: 2.0 ± 0.5 | Neutrophil cell counts [7]: 4.0 ± 1.1 | White blood cells counts [7]: 6.6 ± 1.6 | Eosinophils [8]: 0.18 10^9/L | Lymphocytes [8]: 1.8 ± 0.6 | Neutrophil cell counts [8]: 3.9 ± 1.4 | White blood cells counts [8]: 6.3 ± 1.6 | Eosinophils [9]: 0.2 10^9/L | Lymphocytes [9]: 1.9 ± 0.6 | Neutrophil cell counts [9]: 3.5 ± 1.4 | White blood cells counts [9]: 6.1 ± 1.9 | Eosinophils [10]: 0.18 10^9/L | Lymphocytes [10]: 2.0 ± 1.0 | Neutrophil cell counts [10]: 3.5 ± 1.8 | White blood cells counts [10]: 6.2 ± 2.9 | Eosinophils [11]: 0.1 10^9/L | Lymphocytes [11]: 1.8 ± 0.4 | Neutrophil cell counts [11]: 2.9 ± 0.9 | White blood cells counts [11]: 5.2 ± 1.1 | Eosinophils (MAD 9.0 mg/kg, Day 2 predose): 0.13 10^9/L | Lymphocytes (MAD 9.0 mg/kg, Day 2 predose): 2.5 ± 0.7 | Neutrophil cell counts (MAD 9.0 mg/kg, Day 2 predose): 3.7 ± 1.1 | White blood cells counts (MAD 9.0 mg/kg, Day 2 predose): 6.7 ± 1.2 | Eosinophils (MAD 9.0 mg/kg, Day 3 predose): 0.1 10^9/L | Lymphocytes (MAD 9.0 mg/kg, Day 3 predose): 2.7 ± 0.7 | Neutrophil cell counts (MAD 9.0 mg/kg, Day 3 predose): 3.6 ± 0.7 | White blood cells counts (MAD 9.0 mg/kg, Day 3 predose): 6.8 ± 1.0 | Eosinophils (MAD 9.0 mg/kg, Day 7 predose): 0.1 10^9/L | Lymphocytes (MAD 9.0 mg/kg, Day 7 predose): 2.6 ± 0.6 | Neutrophil cell counts (MAD 9.0 mg/kg, Day 7 predose): 3.4 ± 1.0 | White blood cells counts (MAD 9.0 mg/kg, Day 7 predose): 6.6 ± 1.3 | Eosinophils (MAD 9.0 mg/kg, Day 12 predose): 0.12 10^9/L | Lymphocytes (MAD 9.0 mg/kg, Day 12 predose): 2.8 ± 0.6 | Neutrophil cell counts (MAD 9.0 mg/kg, Day 12 predose): 3.5 ± 0.9 | White blood cells counts (MAD 9.0 mg/kg, Day 12 predose): 6.8 ± 0.9 | Eosinophils (MAD 9.0 mg/kg, Day 14 predose): 0.13 10^9/L | Lymphocytes (MAD 9.0 mg/kg, Day 14 predose): 2.6 ± 0.6 | Neutrophil cell counts (MAD 9.0 mg/kg, Day 14 predose): 3.6 ± 1.0 | White blood cells counts (MAD 9.0 mg/kg, Day 14 predose): 6.8 ± 1.3 | Eosinophils [12]: 0.08 10^9/L | Lymphocytes [12]: 1.9 ± 0.5 | Neutrophil cell counts [12]: 3.1 ± 0.7 | White blood cells counts [12]: 5.5 ± 0.7 | Eosinophils [13]: 0.12 10^9/L | Lymphocytes [13]: 1.8 ± 0.7 | Neutrophil cell counts [13]: 2.9 ± 1.0 | White blood cells counts [13]: 5.2 ± 1.1 | Eosinophils [14]: 0.12 10^9/L | Lymphocytes [14]: 2.1 ± 0.7 | Neutrophil cell counts [14]: 2.9 ± 0.6 | White blood cells counts [14]: 5.5 ± 1.1 | Eosinophils [15]: 0.1 10^9/L | Lymphocytes [15]: 1.7 ± 0.5 | Neutrophil cell counts [15]: 3.0 ± 1.0 | White blood cells counts [15]: 5.2 ± 1.3 | Eosinophils [16]: 0.28 10^9/L | Lymphocytes [16]: 2.2 ± 0.6 | Neutrophil cell counts [16]: 3.4 ± 1.1 | White blood cells counts [16]: 6.3 ± 1.4 | Eosinophils (MAD 20.0 mg/kg, Day 2 predose): 0.17 10^9/L | Lymphocytes (MAD 20.0 mg/kg, Day 2 predose): 2.9 ± 0.8 | Neutrophil cell counts (MAD 20.0 mg/kg, Day 2 predose): 4.5 ± 1.2 | White blood cells counts (MAD 20.0 mg/kg, Day 2 predose): 8.0 ± 1.3 | Eosinophils (MAD 20.0 mg/kg, Day 3 predose): 0.15 10^9/L | Lymphocytes (MAD 20.0 mg/kg, Day 3 predose): 2.9 ± 0.7 | Neutrophil cell counts (MAD 20.0 mg/kg, Day 3 predose): 4.3 ± 1.2 | White blood cells counts (MAD 20.0 mg/kg, Day 3 predose): 7.9 ± 0.7 | Eosinophils (MAD 20.0 mg/kg, Day 7 predose): 0.15 10^9/L | Lymphocytes (MAD 20.0 mg/kg, Day 7 predose): 3.2 ± 0.9 | Neutrophil cell counts (MAD 20.0 mg/kg, Day 7 predose): 4.4 ± 0.7 | White blood cells counts (MAD 20.0 mg/kg, Day 7 predose): 8.2 ± 1.0 | Eosinophils (MAD 20.0 mg/kg, Day 12 predose): 0.12 10^9/L | Lymphocytes (MAD 20.0 mg/kg, Day 12 predose): 3.2 ± 0.4 | Neutrophil cell counts (MAD 20.0 mg/kg, Day 12 predose): 4.4 ± 0.4 | White blood cells counts (MAD 20.0 mg/kg, Day 12 predose): 8.3 ± 0.5 | Eosinophils (MAD 20.0 mg/kg, Day 14 predose): 0.16 10^9/L | Lymphocytes (MAD 20.0 mg/kg, Day 14 predose): 3.1 ± 0.4 | Neutrophil cell counts (MAD 20.0 mg/kg, Day 14 predose): 4.6 ± 0.4 | White blood cells counts (MAD 20.0 mg/kg, Day 14 predose): 8.5 ± 0.4 | Eosinophils [17]: 0.16 10^9/L | Lymphocytes [17]: 2.2 ± 0.3 | Neutrophil cell counts [17]: 4.0 ± 0.3 | White blood cells counts [17]: 6.8 ± 0.2 | Eosinophils [18]: 0.26 10^9/L | Lymphocytes [18]: 2.2 ± 0.3 | Neutrophil cell counts [18]: 4.0 ± 0.3 | White blood cells counts [18]: 6.8 ± 0.4 | Eosinophils [19]: 0.32 10^9/L | Lymphocytes [19]: 2.6 ± 0.5 | Neutrophil cell counts [19]: 3.9 ± 1.1 | White blood cells counts [19]: 7.3 ± 1.1 | Eosinophils [20]: 0.25 10^9/L | Lymphocytes [20]: 2.0 ± 0.5 | Neutrophil cell counts [20]: 3.5 ± 1.2 | White blood cells counts [20]: 6.1 ± 1.1 | white blood cell counts (any MAD dose group): No significant changes
